This note sets out measurements from patent US9988680B2, “Non-natural nucleosides as theranostic agents” (Case Western Reserve University, priority 2011, dated 2018).

One may read the Vmax as the top rate of the reaction or transport when substrate is in excess.

The target in test [1] is T1, terminal deoxynucleotidyl transferase (TdT) (Bos taurus, UniProt P06526). The test is described as follows: Incorporation of natural and non-natural nucleotides by TdT (polymerization assay, Michaelis-Menten kinetics). It counts as biochemical. The method, then: All enzymatic assays were performed as previously described. […] Reactions were quenched with 200 Mm EDTA at variable times (5-600 s) and analyzed using denaturing gel electrophoresis. Time courses in product formation were fitted using eq 1: Y=mt+b(1) (1)
T1 sequence (P06526 whole entry): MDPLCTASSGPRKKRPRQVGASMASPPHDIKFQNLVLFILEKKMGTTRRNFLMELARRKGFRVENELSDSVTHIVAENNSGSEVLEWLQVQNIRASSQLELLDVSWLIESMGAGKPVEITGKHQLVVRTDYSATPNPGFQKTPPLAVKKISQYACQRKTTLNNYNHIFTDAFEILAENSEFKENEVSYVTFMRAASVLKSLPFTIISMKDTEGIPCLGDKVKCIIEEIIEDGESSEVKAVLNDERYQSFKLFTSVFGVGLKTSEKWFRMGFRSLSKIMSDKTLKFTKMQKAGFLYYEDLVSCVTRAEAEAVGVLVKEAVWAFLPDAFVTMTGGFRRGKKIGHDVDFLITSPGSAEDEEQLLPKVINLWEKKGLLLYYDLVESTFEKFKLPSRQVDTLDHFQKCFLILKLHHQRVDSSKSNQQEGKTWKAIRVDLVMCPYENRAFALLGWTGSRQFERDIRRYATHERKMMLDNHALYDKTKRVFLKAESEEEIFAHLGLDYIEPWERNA
where y is the amount of product, m is the rate of the reaction, t is time, and b is the Y-intercept. Km and Vmax values were determined by fits of the data points to the Michaelis-Menten equation: […]
where Vmax is the maximal rate of nucleotide incorporation, Km is the Michaelis constant for dNTP, and [dNTP] is the concentration of nucleotide substrate. The IC50 value for 3-Eth-5-NITP was obtained using a nonlinear regression curve fit of the data to eq 3:
The biological function of TdT is to expand immunological diversity by randomly incorporating dNTPs into single-stranded DNA during V(D)J recombination. […] TdT also utilizes nucleotide analogues including 2′,3′-dideoxynucleotides, dinucleoside 5′,5′-tetraphosphates, and intrinsically fluorescent nucleotide analogues. In this report, we tested if TdT also incorporates indolyl-2′-deoxyribose-5′-triphosphates that bear non-natural moieties such as ethynyl and nitro groups at the 3- and 5-position, respectively, of the indole base. […] Aliquots of the reaction were quenched with EDTA at variable time points, and the polymerization reactions were then subjected to denaturing polyacrylamide gel electrophoresis to separate extended primers from unreacted substrate.
Time courses in product formation were generated using pseudo-first order reaction conditions in which 6 units of TdT were incubated with 1.5 μM DNA substrate and mixed with variable concentrations of non-natural nucleotide (0.05-50 μM). Each time course was fit to an equation for a straight line to define the rate of nucleotide incorporation (data not shown).

Test [2] concerns the target T1, terminal deoxynucleotidyl transferase (TdT). The test is described as above. The settings on record: reaction times of up to 20 min. It counts as biochemical.

In the case of `C#Cc1cn(C2CC(O)C(COP(=O)(O)OP(=O)(O)OP(=O)(O)O)O2)c2ccc([N+](=O)[O-])cc12` (stereo not drawn) [3-Eth-5-NITP, 3-ethynyl-5-nitroindolyl-2′-deoxyribose-5′-triphosphate], the “utilization by TdT (elongation of 14-mer DNA substrate)” value in test [1] (100 μM nucleotide, 6 units TdT, 1.5 μM 14-mer (FIG. 2B)) is given as “utilized by TdT as efficiently as the natural purines”. For the same compound, in test [1] (100 μM nucleotide, 14-mer DNA, gel (FIG. 2B)), the “extension by TdT beyond the incorporated nucleotide” value is recorded as “poorly extended”. Further, in test [1] (incorporation by TdT, 6 units TdT, 1.5 μM single-stranded DNA substrate), the maximal velocity (Vmax) came to 3.2 ± 0.1 nM/s. In test [1] (relative to 5-NITP), the “catalytic efficiency higher than that for 5-NITP” value is 7 fold and the “decrease in Vmax” value is listed as 3.5 fold. Further, the “extension by TdT beyond the incorporated nucleotide at longer reaction times” value in test [2] is “not observed”.
